Experimental data reported in ChEMBL document CHEMBL5338737, “Lysine-Specific Demethylase 1 Promises to Be a Novel Target in Cancer Drug Resistance: Therapeutic Implications” (J Med Chem, 2023).

Experiments:
[1] = target: T1, Lysine-specific histone demethylase 1A (Homo sapiens, UniProt O60341)
Description: Inhibition of LSD1 (unknown origin)

[2] = target: T1, Lysine-specific histone demethylase 1A; test: Inhibition of recombinant LSD1 (unknown origin) incubated for 1 hr by fluorescence based analysis

Row | IC50 [1] | IC50 [2] | SMILES
1 | 127 nM | – | C/C(=N\NC(=O)c1cccc(S(=O)(=O)N2CCN(C)CC2)c1)c1cc(Cl)ccc1O
2 | < 1000 nM | – | NC1CC1c1ccc(NC(=O)c2ccc(O)c3ncccc23)cc1 (stereo not drawn)
3 | – | 400 nM | COc1cc2c(c(O)c1OC)c(=O)c1ccccc1n2C [ARBORININE]
